The nature of this series: in vitro. The note with it: human, hela cells, % viability.

Molecules are shown by their SMILES.

A word on the viability: it is a read-out of living cells in per cent, often relative to untreated cells.

`NC(=O)c1ccccc1OCCO` [CBK000640]: the viability at 28.5 h, 10 µM was determined as 87.8%. With `O=C(Nc1ccc(OC(F)(F)F)cc1)N1CCN(Cc2ccc3c(c2)OCO3)CC1` [CBK074754] the figure was 99.5%. The figure for `CC1(C)CC(=O)Nc2ccccc2S1` [CBK025483] is 98.2%. The figure for `CCCN(CCC#N)S(=O)(=O)c1ccc(C(C)C)cc1` [CBK043453] is 94.4%; for `NC(=O)c1c(NC(=O)c2ccc(-c3ccccc3)cc2)sc2c1CCC2` [CBK265747] it is 91.3%. Consider `O=C(NCc1cccs1)C1(Cc2ccccc2-c2ccc(F)c(F)c2)CCOCC1` [CBK286417], for which the viability at 28.5 h, 10 µM came out at 93.2%. Regarding `CCCn1cc(CNC(=O)c2cccc(S(=O)(=O)N3CCCC3)c2)cn1` [CBK307095], the viability at 28.5 h, 10 µM was 78.5%. Consider `CCOC1=NCCN2CCc3cccc1c32` [CBK023113], for which the viability at 28.5 h, 10 µM worked out at 117%. Consider `COc1ccc(OCCN2CCC(C(=O)NC(c3ccccn3)c3ccccc3OC)CC2)cc1` (stereo not drawn) [CBK147938], for which the viability at 28.5 h, 10 µM was found to be 86.3%. For `CC1=CC(C)C(CN2CC34C=CC(O3)C(C(=O)O)C4C2=O)C(C)C1` (stereo not drawn) [CBK287005], the viability at 28.5 h, 10 µM was 96.1%. On to `COc1ccc(C(C)c2cc3c(cc2OCC(=O)O)OCO3)cc1` (stereo not drawn) [CBK200108], for which the viability at 28.5 h, 10 µM was found to be 87.4%. `COc1ccc(Br)c(C(CO)N(C)C(=O)Cc2cnccc2C)c1` (stereo not drawn) [CBK306267]: the viability at 28.5 h, 10 µM came to 96.4%. With `O=C(O)CCSC(CC(=O)c1ccccc1)c1ccc(Cl)cc1` (stereo not drawn) [CBK077251], the viability at 28.5 h, 10 µM came to 97.3%. As to `O=C1CCC(=O)N1CCOc1nccnc1OC1CCN(CC2CCCCC2)CC1` [CBK084357], the viability at 28.5 h, 10 µM was 105%.

As to `COc1ccc(NC(=O)C2CC3CCC2C3)cc1S(=O)(=O)Nc1ccc(Cl)cc1` (stereo not drawn) [CBK297945], the viability at 28.5 h, 10 µM worked out at 79.4%. Turning to `Cc1ccc2nc(-c3ccc(/N=C/c4cccc(O)c4O)cc3)sc2c1` [CBK261583], the viability at 28.5 h, 10 µM came out at 96%. Turning to `O=C(Nc1nc2c(s1)CCCCC2)C1CN(S(=O)(=O)c2ccc(F)cc2)C1` [CBK286005], the viability at 28.5 h, 10 µM was found to be 95%. The figure for `Cc1ccc(NC(=S)N(CCN(C)C)Cc2cc3ccc(C)cc3[nH]c2=O)c(C)c1` [CBK135134] is 92.4%. The figure for `Cc1ccn(CCNC(=O)c2cc3cccc(C)c3nc2C)n1` [CBK282645] is 82.3%; for `CCOC(=O)c1cn(CC#N)c2cc(F)c(F)cc2c1=O` [CBK304211] it is 98.3%. With `CNC(=O)CCc1ccccc1NC(=O)NCc1cnc(SC)n1C` [CBK307507] the figure was 101%. As to `COc1ccc(-c2cc(C3CCCCCN3)no2)cc1` (stereo not drawn) [CBK285399], the viability at 28.5 h, 10 µM amounted to 96.5%. Consider `CC(C)c1ccc(CNC(=O)c2ccc3[nH]ccc3c2)cc1` [CBK161754], for which the viability at 28.5 h, 10 µM came out at 96.1%.

As for `Cc1ccc(-c2noc(CN3CCN(c4ccccc4)CC3)n2)cc1` [CBK265924], the viability at 28.5 h, 10 µM was determined as 101%. Take `O=C(c1c[nH]c2ccccc12)N1CCc2ccccc2C1` [CBK200331]: the viability at 28.5 h, 10 µM came out at 113%. `O=C(c1cnccn1)N1CCC(Cc2ccccc2)CC1` [CBK200181]: the viability at 28.5 h, 10 µM came to 92.6%. For the compound `c1ccc(OCCN2CCC(Oc3cncc(OCCN4CCOCC4)n3)C2)cc1` (stereo not drawn) [CBK084499], the viability at 28.5 h, 10 µM stood at 113%. With `O=C1NC2(CCN(C(=O)c3ccccc3F)CC2)Oc2ccccc21` [CBK283997] the figure was 81.9%. Take `O=C(Nc1ccc(NC(=O)Nc2cccc(Cl)c2)cc1)Nc1cccc(Cl)c1` [CBK267623]: the viability at 28.5 h, 10 µM was 93.9%. For `CN(C(=O)CN1CCN(c2cc(-c3cccc4oc5ccccc5c34)ncn2)CC1)c1ccccc1` [CBK091130], the viability at 28.5 h, 10 µM came to 97.8%. With `CN(C)CC1CN(C(=O)c2ccccc2F)Cc2ccccc2O1` (stereo not drawn) [CBK285188] the figure was 86.9%; with `N/C(=N\OC(=O)CCCc1ccccc1)c1ccc(Cl)cc1` [CBK264454], 107%; with `Nc1nc(Cl)c2ncn([C@@H]3O[C@H](CO)[C@H](O)C3O)c2n1` (stereo partly drawn) [CBK201291], 81%. For `Cc1ccc(NC(=O)CN2CCN(Cc3ccc4c(c3)OCO4)CC2)cc1` [CBK074403], the viability at 28.5 h, 10 µM was determined as 102%. For the compound `CCCn1nc(C)c(-c2cncn2CCc2c(C)nn(C)c2C)c1C` [CBK281475], the viability at 28.5 h, 10 µM came to 91.5%. As for `Nc1ncc(-c2cccs2)nc1-c1ccc(C(=O)O)cc1` [CBK064133], the viability at 28.5 h, 10 µM amounted to 91.4%.

For `COc1ccccc1-c1ccc(CNC(Cc2ccsc2)c2nccs2)cc1` (stereo not drawn) [CBK286315], the viability at 28.5 h, 10 µM was 86.7%.

For `CN(C(=O)Cc1ccccc1)c1ccccc1` [CBK012581], the viability at 28.5 h, 10 µM is 103%. Consider `O=CN1CCc2c([nH]c3ccc(F)cc23)C12CCN(Cc1cccc(Oc3ccc(F)cc3)c1)CC2` [CBK040388], for which the viability at 28.5 h, 10 µM worked out at 96.4%.

For the compound `O=C(O)CCCc1ccc2sc3ccccc3c2c1` [CBK010971], the viability at 28.5 h, 10 µM came to 84.8%. `CCN(CC)C(=O)C1CCCN(C(=O)Nc2cccnc2)C1` (stereo not drawn) [CBK156157]: the viability at 28.5 h, 10 µM was found to be 96.8%. With `CCN(Cc1ccncc1)C(=O)NCCCSC` [CBK155125] the figure was 88.8%; with `O=C(NCCN1CCOCC1)NCC12CC3CC(C1)CC(c1ccccc1)(C3)C2` [CBK268388], 89.1%.

With `CCc1cc2c(=O)c(-c3cnn(-c4ccccc4)c3)c(C(F)(F)F)oc2c(CN(C)C)c1O` [CBK264530], the viability at 28.5 h, 10 µM amounted to 90.9%. On to `Cc1oc(C(=O)O)cc1CSCc1cc(C(=O)O)oc1C` [CBK263275], for which the viability at 28.5 h, 10 µM worked out at 101%.

Take `Nc1nonc1C(=O)NCc1cccnc1` [CBK025695]: the viability at 28.5 h, 10 µM was 95.9%.

As to `COc1ccc(C(C)NC(=O)c2cn[nH]c2-c2ccc(Cl)cc2)cc1` (stereo not drawn) [CBK288065], the viability at 28.5 h, 10 µM came out at 102%. As to `Fc1ccc2[nH]c3c(c2c1)CCN1C(c2ccncc2)N2CCC31CC2` (stereo not drawn) [CBK284437], the viability at 28.5 h, 10 µM was determined as 78.6%. In the case of `NCCCOc1cncc(N2CCCC2)n1` [CBK115603], the viability at 28.5 h, 10 µM was found to be 96.8%. Consider `c1csc(Sc2nc3ccccc3nc2N2CCCC2)c1` [CBK115225], for which the viability at 28.5 h, 10 µM is 94.3%. The figure for `O=S(=O)(NCCN1CCCC1)c1cccc2nsnc12` [CBK261132] is 97.3%.

With `Cc1[nH]c2ccccc2c1C(=O)CSc1nc2ccccc2o1` [CBK266339], the viability at 28.5 h, 10 µM is 100%. Take `O=C(Nc1ccc2[nH]c(=O)[nH]c2c1)c1ccc2[nH]ccc2c1` [CBK149083]: the viability at 28.5 h, 10 µM was found to be 97.5%. With `c1ccc2oc(CN3Cc4nc[nH]c4C[C@H]3c3nc(-c4ccc5c(c4)OCO5)no3)cc2c1` [CBK288998] the figure was 81.5%. Consider `CCOC(=O)C1=NN(C)c2cnn(Cc3ccc(Cl)cc3)c(=O)c2C1C(=O)CC(C)C` (stereo not drawn) [CBK021389], for which the viability at 28.5 h, 10 µM was determined as 91.9%. For the compound `COc1cc(Nc2cncc(-c3ccc4ccccc4c3)n2)cc(OC)c1OC` [CBK065176], the viability at 28.5 h, 10 µM amounted to 61.7%. With `COc1ccccc1N/C(=N\OCc1ccc(Cl)cc1Cl)c1nonc1N` [CBK018391] the figure was 91%; with `O=C(O)CNC(=O)CCn1c(-c2ccccc2)cc2ccccc21` [CBK286780], 99.2%; with `Cc1ccc(-n2c(O)nnc2-c2ccc(Cl)c(Cl)c2)cc1` [CBK074887], 94.5%.

Regarding `COc1ccccc1-c1ncc(OCc2ccccn2)nc1N` [CBK145070], the viability at 28.5 h, 10 µM came to 109%. Turning to `COc1cncc(-c2cc(Nc3ccc(O)cc3C)ncn2)c1` [CBK091061], the viability at 28.5 h, 10 µM came out at 103%. With `COc1cccc(N2CCN(C(C(=O)O)c3cn(C)c4cc(C(=O)O)ccc34)CC2)c1` (stereo not drawn) [CBK286701] the figure was 114%. Regarding `Cn1c(=O)n(CC(=O)NCCc2ccccc2)c2cccnc21` [CBK283910], the viability at 28.5 h, 10 µM came to 82.8%. On to `CC(=O)Nc1c(Nc2ccccc2)c2ccccc2oc1=O` [CBK261756], for which the viability at 28.5 h, 10 µM came out at 88.1%.

`O=C(Nc1ccc(OC(F)(F)F)cc1)c1cnc(-c2ccc(Cl)cc2)c(-c2ccco2)c1` [CBK037456]: the viability at 28.5 h, 10 µM was 106%. In the case of `CCCNC(=O)Cn1c(=O)n(Cc2cccs2)c2ncccc21` [CBK283843], the viability at 28.5 h, 10 µM is 101%. On to `O=C(O)COc1ccc(Br)cc1/C=N/Nc1cccc2cccnc12` [CBK262362], for which the viability at 28.5 h, 10 µM was determined as 112%.

As for `O=S(=O)(Nc1ccc(N2CCCCC2)cc1)c1cccc2cccnc12` [CBK263077], the viability at 28.5 h, 10 µM stood at 93.1%. The figure for `CC(NC(=O)C1CCN(CCc2ccccc2)CC1)c1ccccc1` (stereo not drawn) [CBK148612] is 99.6%; for `CC(C)(C)OC(=O)NCCNCc1ccccc1C(F)(F)F` [CBK056695] it is 80%; for `CN1C(=O)c2ccccc2C(=O)[C@@]2(C)CN(C(=O)C3CCCC3)C[C@@H]12` [CBK284570] it is 91.5%. Regarding `Cc1ccc(Sc2ncccc2C(=O)Nc2ccnn2Cc2cccnc2)cc1C` [CBK296980], the viability at 28.5 h, 10 µM came to 109%. Take `O=C(/C=C/c1cccc([N+](=O)[O-])c1)Nc1ccc(O)cc1C(=O)O` [CBK263615]: the viability at 28.5 h, 10 µM stood at 87.3%. With `Cc1ccc(Cn2nc(C)c(C(=O)OCc3cc(=O)n4ccccc4n3)c2Cl)cc1` [CBK297550], the viability at 28.5 h, 10 µM stood at 85.8%. With `COc1ccc(-c2ccnc(N[C@H]3CO[C@H]4[C@@H]3OC[C@@H]4NC(=O)C3CCCCC3)n2)cc1` [CBK289527], the viability at 28.5 h, 10 µM was found to be 88.9%. Regarding `O=C(NCCO)c1cccc(-c2cncc(N3CCCCC3CCO)n2)c1` (stereo not drawn) [CBK037759], the viability at 28.5 h, 10 µM was found to be 104%.

`CSCCN(C)c1nc2c(c(=O)[nH]1)Cc1ccccc1OC2` [CBK307523]: the viability at 28.5 h, 10 µM was determined as 100%. With `Cc1ccc(C(=O)Nc2nc3ccc4nc(C)sc4c3s2)cc1` [CBK287305], the viability at 28.5 h, 10 µM worked out at 91.8%. `CCc1ccccc1NC(=O)CN1CCCCC1C(=O)O` (stereo not drawn) [CBK287179]: the viability at 28.5 h, 10 µM turned out to be 92.4%.

`CC(C)(C)c1oc(C(=O)O)cc1CN1CCCC1` [CBK287136]: the viability at 28.5 h, 10 µM is 84.7%. As for `COc1ccc(S(=O)(=O)N(C)CC(=O)Nc2ccc(C(N)=O)cc2)cc1Cl` [CBK267891], the viability at 28.5 h, 10 µM is 109%.

Source of the values: PMC12040169 (PLOS Biology, 2025).
